Reference: article PMC10590056, “Design and synthesis of cabotegravir derivatives bearing 1,2,3-triazole and evaluation of anti-liver cancer activity” (Frontiers in Pharmacology, 2023)
Several values for one entry are separate records, joined by “and”; a condition that tells them apart may be missing. Identical values can stand only once.

Tested on: normal hepatic cells L02
Assay: MTT inhibition rate in normal hepatic cells L02
Format: cell-based
Details: for inhibition at 1 µM / inhibition at 2 µM / inhibition at 4 µM / inhibition at 8 µM / inhibition at 16 µM: Homo sapiens, L02, 48 h, 48 h; for inhibition at 1 µM: L02, 1 μM; for inhibition at 2 µM: L02, 2 μM; for inhibition at 4 µM: L02, 4 μM; for inhibition at 8 µM: L02, 8 μM; for inhibition at 16 µM: L02, 16 μM; for Average OD / Inhibitory rate / ODtreated/ODcontrol: L02 cells, 3 repeat experiments; for Average OD: average of 5 wells; for Inhibitory rate / ODtreated/ODcontrol: fraction

With `COc1c2n(cc(C(=O)Nc3cccc(-c4cn(-c5cc(C(F)(F)F)cc(C(F)(F)F)c5)nn4)c3)c1=O)C[C@H]1OC[C@H](C)N1C2=O` [KJ-5] the inhibition at 1 µM was 9.85 ± 1.6%, the inhibition at 2 µM was 14.9 ± 1.97% and the inhibition at 4 µM was less than 20%. For the same compound, the inhibition at 8 µM was 27.1 ± 1.03%, the inhibition at 16 µM was 34.9 ± 2.22% and the “Average OD” value (Group 1) was 1.014 and 1.1374 and 1.3158. For the same compound, the Inhibitory rate (Group 1) was 0.1149 and 0.09786 and 0.08274, the ODtreated/ODcontrol (Group 1) was 0.8851 and 0.9021 and 0.9173 and the “Average OD” value (Group 2) was 0.969 and 1.07 and 1.2316. The Inhibitory rate (Group 2) was 0.1715 and 0.1379 and 0.1371, the ODtreated/ODcontrol (Group 2) was 0.8285 and 0.8621 and 0.8629 and the “Average OD” value (Group 4) was 0.922 and 1.0172 and 1.2162. For the same compound, the Inhibitory rate (Group 4) was 0.1819 and 0.1797 (2×), the ODtreated/ODcontrol (Group 4) was 0.8181 and 0.8203 (2×) and the “Average OD” value (Group 8) was 0.8272 and 0.9114 and 1.0668. The Inhibitory rate (Group 8) was 0.2824 and 0.2641 and 0.265, the ODtreated/ODcontrol (Group 8) was 0.7176 and 0.7359 and 0.735 and the “Average OD” value (Group 16) was 0.7216 and 0.9442. The Inhibitory rate (Group 16) was 0.3649 and 0.358 and 0.3234, the ODtreated/ODcontrol (Group 16) was 0.6351 and 0.642 and 0.6766 and the “Average OD” value (Group 32) was 0.428 and 0.4844 and 0.436. The Inhibitory rate (Group 32) was 0.7067 and 0.6192 and 0.6094 and the ODtreated/ODcontrol (Group 32) was 0.2933 and 0.3808 and 0.3906.
`COc1c2n(cc(C(=O)Nc3cccc(-c4cn(-c5c(C)cc(C)cc5C)nn4)c3)c1=O)C[C@H]1OC[C@H](C)N1C2=O` [KJ-12] gave an inhibition at 1 µM of 10.8 ± 0.95%, an inhibition at 2 µM of 13.6 ± 0.75% and an inhibition at 4 µM of less than 20%. For the same compound, the inhibition at 8 µM was 22.3 ± 2.93%, the inhibition at 16 µM was 30.5 ± 1.2% and the “Average OD” value (Group 1) was 1.123 and 1.0994 and 0.8196. For the same compound, the Inhibitory rate (Group 1) was 0.1145 and 0.1117 and 0.09678, the ODtreated/ODcontrol (Group 1) was 0.8855 and 0.8883 and 0.9032 and the “Average OD” value (Group 2) was 1.1022 and 1.0518 and 0.793. For the same compound, the Inhibitory rate (Group 2) was 0.1433 and 0.1281 and 0.1359, the ODtreated/ODcontrol (Group 2) was 0.8567 and 0.8719 and 0.8641 and the “Average OD” value (Group 4) was 1.0412 and 1.0106 and 0.783. For the same compound, the Inhibitory rate (Group 4) was 0.1541 and 0.1764 and 0.1697, the ODtreated/ODcontrol (Group 4) was 0.8459 and 0.8236 and 0.8303 and the “Average OD” value (Group 8) was 1.0104 and 0.9056 and 0.7302. The Inhibitory rate (Group 8) was 0.2111 and 0.2008 and 0.256, the ODtreated/ODcontrol (Group 8) was 0.7889 and 0.7992 and 0.744 and the “Average OD” value (Group 16) was 0.8912 and 0.8512 and 0.6312. The Inhibitory rate (Group 16) was 0.3181 and 0.295 and 0.3007, the ODtreated/ODcontrol (Group 16) was 0.6819 and 0.705 and 0.6993 and the “Average OD” value (Group 32) was 0.7446 and 0.6962 and 0.5126. The Inhibitory rate (Group 32) was 0.4462 and 0.411 and 0.428 and the ODtreated/ODcontrol (Group 32) was 0.5538 and 0.589 and 0.572.
